From ChEMBL document CHEMBL5223108, “Aiming to improve binding of porphyrin diphenyl guanidinium conjugates to guanine-quadruplexes: When size matters” (Bioorg Med Chem Lett, 2022)
Active and inactive are the calls of the source. The rule behind the calls is not given here.

Experiments:
[1] = tested on: Quadruplex DNA; experiment: Binding affinity to c-KIT1 G4 quadruplex DNA (unknown origin) assessed as change in melting temperature at 1:2 G4:ligand ratio by UV analysis (reference value: 66.5 degreeC); format: nucleic-acid assay
[2] = tested on: Quadruplex DNA; experiment: Binding affinity to c-KIT2 G4 quadruplex DNA (unknown origin) assessed as change in melting temperature at 1:2 G4:ligand ratio by UV analysis (reference value: 59.1 degreeC); format: nucleic-acid assay
[3] = tested on: Quadruplex DNA; experiment: Binding affinity to 22AG_K G4 quadruplex DNA (unknown origin) assessed as change in melting temperature at 1:2 G4:ligand ratio by UV analysis (reference value: 60.1 degreeC); format: nucleic-acid assay
[4] = tested on: Quadruplex DNA; experiment: Binding affinity to KRAS G4 quadruplex DNA (unknown origin) assessed as change in melting temperature at 1:2 G4:ligand ratio by UV analysis (reference value: 48.7 degreeC); format: nucleic-acid assay
[5] = tested on: Quadruplex DNA; experiment: Binding affinity to 22AG_Na G4 quadruplex DNA (unknown origin) assessed as change in melting temperature at 1:2 G4:ligand ratio by UV analysis (reference value: 55.9 degreeC); format: nucleic-acid assay
[6] = tested on: Quadruplex DNA; experiment: Binding affinity to 23TA G4 quadruplex DNA (unknown origin) assessed as change in melting temperature at 1:2 G4:ligand ratio by UV analysis (reference value: 59.5 degreeC); format: nucleic-acid assay
[7] = tested on: Salmonidae; experiment: Binding affinity to salmon testes […] DNA assessed as change in melting temperature at 1:2 […] ratio by UV analysis (reference value: 66.6 degreeC)
[8] = tested on: Quadruplex DNA; experiment: Binding affinity to c-KIT1 G4 quadruplex DNA (unknown origin) by CD spectroscopy analysis; format: nucleic-acid assay
[9] = tested on: Quadruplex DNA; experiment: Binding affinity to 22AG_Na G4 quadruplex DNA (unknown origin) by CD spectroscopy analysis; format: nucleic-acid assay
[10] = tested on: Quadruplex DNA; experiment: Binding affinity to human c-KIT1 G4 quadruplex DNA assessed as change in melting temperature at 10 uM by UV analysis; format: nucleic-acid assay
[11] = tested on: Quadruplex DNA; experiment: Binding affinity to human c-KIT2 G4 quadruplex DNA assessed as change in melting temperature at 10 uM by UV analysis; format: nucleic-acid assay
[12] = tested on: Quadruplex DNA; experiment: Binding affinity to human 22AG_Na G4 quadruplex DNA assessed as change in melting temperature at 10 uM by UV analysis; format: nucleic-acid assay

A ΔTm [1] of -7.84 °C, a ΔTm [2] of -1.49 °C and a ΔTm [3] of -1.05 °C were found for `N=C(N)Nc1ccc(S(=O)(=O)c2ccc(NC(=N)NC(=O)Nc3ccc(-c4c5nc(c(-c6ccccc6)c6ccc([nH]6)c(-c6ccccc6)c6nc(c(-c7ccccc7)c7ccc4[nH]7)C=C6)C=C5)cc3)cc2)cc1` in this work. The ΔTm [4] was 2.91 °C, the ΔTm [5] was 10.2 °C and the ΔTm [6] was 2.42 °C. For the same compound, the ΔTm [7] was 0.02 °C, the Activity [8] was “inactive” and the Activity [9] was “inactive”.
A ΔTm [10] of 2.2 °C, a ΔTm [11] of over 20 °C and a ΔTm [12] of -2.7 °C were found for `N=C(N)Nc1ccc(Oc2ccc(NC(=N)NC(=O)Nc3ccc(-c4c5nc(c(-c6ccccc6)c6ccc([nH]6)c(-c6ccccc6)c6nc(c(-c7ccccc7)c7ccc4[nH]7)C=C6)C=C5)cc3)cc2)cc1` in this work.
A ΔTm [10] of 1 °C, a ΔTm [11] of over 20 °C and a ΔTm [12] of -4.9 °C were found for `N=C(N)Nc1ccc(Sc2ccc(NC(=N)NC(=O)Nc3ccc(-c4c5nc(c(-c6ccccc6)c6ccc([nH]6)c(-c6ccccc6)c6nc(c(-c7ccccc7)c7ccc4[nH]7)C=C6)C=C5)cc3)cc2)cc1` in this work.
